Consider 15 molecules from ChEMBL document CHEMBL1909046, “DrugMatrix in vitro pharmacology data”.

pIC50, pKi: −log10 of the molar value.

In general, pIC50 refers to −log10 of the IC50, conventionally taken in molar units. The term pKi denotes −log10 of the Ki, conventionally taken in molar units.

In one data set the target is T1, B2 bradykinin receptor (Homo sapiens, UniProt P30411). Also: in other assays of this panel Not Active means under 50% inhibition at 10 µM.
T1 sequence (P30411 whole entry): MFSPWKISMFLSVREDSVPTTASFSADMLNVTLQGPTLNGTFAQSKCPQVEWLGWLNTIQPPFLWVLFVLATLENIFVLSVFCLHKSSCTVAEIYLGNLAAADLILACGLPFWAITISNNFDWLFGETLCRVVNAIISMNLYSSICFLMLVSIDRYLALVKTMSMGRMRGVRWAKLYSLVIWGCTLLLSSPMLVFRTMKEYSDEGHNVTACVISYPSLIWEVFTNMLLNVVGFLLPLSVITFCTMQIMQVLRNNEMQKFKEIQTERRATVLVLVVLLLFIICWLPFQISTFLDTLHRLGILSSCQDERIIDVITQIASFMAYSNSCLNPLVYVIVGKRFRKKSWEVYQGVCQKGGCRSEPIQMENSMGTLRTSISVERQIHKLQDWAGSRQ
In kind it is cell membranes, Membrane. As to conditions: chem-1.

In the next data set the target is T2, Substance-K receptor (Homo sapiens, UniProt P21452). Also: in other assays of this panel Not Active means under 50% inhibition at 10 µM.
T2 sequence (P21452 whole entry): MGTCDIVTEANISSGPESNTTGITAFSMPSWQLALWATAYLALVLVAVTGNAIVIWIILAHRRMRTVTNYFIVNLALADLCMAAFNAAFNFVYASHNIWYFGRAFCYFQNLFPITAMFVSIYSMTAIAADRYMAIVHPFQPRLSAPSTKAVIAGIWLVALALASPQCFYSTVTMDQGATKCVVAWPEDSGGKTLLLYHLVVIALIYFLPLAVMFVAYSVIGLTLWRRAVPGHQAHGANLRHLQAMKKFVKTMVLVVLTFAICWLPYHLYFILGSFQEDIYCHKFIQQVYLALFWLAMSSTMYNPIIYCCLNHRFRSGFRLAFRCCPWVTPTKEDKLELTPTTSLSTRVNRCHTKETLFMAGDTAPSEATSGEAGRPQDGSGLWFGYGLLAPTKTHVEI
Format: cell membranes, CHO, Membrane. As to conditions: for IC50: cho.

In a further data set the target is T3, D(4) dopamine receptor (Homo sapiens, UniProt P21917).
T3 sequence (P21917 whole entry): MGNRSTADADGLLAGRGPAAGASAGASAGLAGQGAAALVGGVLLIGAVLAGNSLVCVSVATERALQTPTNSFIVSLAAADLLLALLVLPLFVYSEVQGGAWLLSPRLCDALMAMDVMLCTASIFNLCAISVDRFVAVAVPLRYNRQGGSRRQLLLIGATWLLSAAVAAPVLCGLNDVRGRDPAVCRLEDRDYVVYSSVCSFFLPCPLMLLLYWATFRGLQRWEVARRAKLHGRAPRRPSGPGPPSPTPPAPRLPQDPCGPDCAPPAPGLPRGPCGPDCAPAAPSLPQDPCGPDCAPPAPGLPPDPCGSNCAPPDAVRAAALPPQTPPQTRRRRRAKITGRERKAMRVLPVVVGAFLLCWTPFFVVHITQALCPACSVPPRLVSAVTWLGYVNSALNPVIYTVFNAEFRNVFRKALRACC
In words: DRUGMATRIX: Dopamine D4.2 radioligand binding (ligand: [3H] Spiperone). In kind it is cell membranes, CHO-K1, Membrane. As to conditions: cho-k1; Not Active = under 50% inhibition at 10 µM.

Data set [1] is described as follows: DRUGMATRIX: GABAA, Muscimol, Central radioligand binding (ligand: [3H] Muscimol). As to conditions: Not Active = under 50% inhibition at 10 µM. In kind it is cell membranes, Rattus norvegicus, Wistar, Brain, Membrane.
A further data set has as its target Histamine H2 receptor (Homo sapiens, UniProt P25021). In kind it is cell membranes, CHO-K1, Membrane. As to conditions: cho-k1. Also: in other assays of this panel Not Active means under 50% inhibition at 10 µM.
A further data set has as its target T4, Neutrophil elastase (Homo sapiens, UniProt P08246).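 Also: inhibition of neutrophil elastase enzyme activity, measured with a p-nitroanilide-linked peptide substrate; in other assays of this panel Not Active means under 50% inhibition at 10 µM.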
T4 sequence (P08246 whole entry): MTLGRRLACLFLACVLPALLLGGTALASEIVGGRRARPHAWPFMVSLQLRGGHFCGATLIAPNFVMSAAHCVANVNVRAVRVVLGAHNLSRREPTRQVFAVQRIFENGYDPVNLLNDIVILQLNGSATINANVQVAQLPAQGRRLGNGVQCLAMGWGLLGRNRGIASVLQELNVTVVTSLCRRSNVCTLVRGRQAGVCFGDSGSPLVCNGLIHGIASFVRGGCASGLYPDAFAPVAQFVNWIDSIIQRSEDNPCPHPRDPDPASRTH
Format: tissue-based.

Data set [2] addresses Voltage-gated inwardly rectifying potassium channel KCNH2 (Homo sapiens, UniProt Q12809). As to conditions: hek293.

Histamine H2 receptor, sequence (P25021 whole entry): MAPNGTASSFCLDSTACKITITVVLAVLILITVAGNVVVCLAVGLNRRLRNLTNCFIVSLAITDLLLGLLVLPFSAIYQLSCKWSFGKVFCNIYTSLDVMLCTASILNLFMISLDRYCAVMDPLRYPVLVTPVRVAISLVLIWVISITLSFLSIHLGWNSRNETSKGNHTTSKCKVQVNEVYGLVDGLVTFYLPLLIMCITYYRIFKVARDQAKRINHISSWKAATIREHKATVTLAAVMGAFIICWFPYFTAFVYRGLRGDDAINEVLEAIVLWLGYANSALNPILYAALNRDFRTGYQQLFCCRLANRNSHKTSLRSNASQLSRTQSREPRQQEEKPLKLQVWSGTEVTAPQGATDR
Voltage-gated inwardly rectifying potassium channel KCNH2, sequence (Q12809 whole entry): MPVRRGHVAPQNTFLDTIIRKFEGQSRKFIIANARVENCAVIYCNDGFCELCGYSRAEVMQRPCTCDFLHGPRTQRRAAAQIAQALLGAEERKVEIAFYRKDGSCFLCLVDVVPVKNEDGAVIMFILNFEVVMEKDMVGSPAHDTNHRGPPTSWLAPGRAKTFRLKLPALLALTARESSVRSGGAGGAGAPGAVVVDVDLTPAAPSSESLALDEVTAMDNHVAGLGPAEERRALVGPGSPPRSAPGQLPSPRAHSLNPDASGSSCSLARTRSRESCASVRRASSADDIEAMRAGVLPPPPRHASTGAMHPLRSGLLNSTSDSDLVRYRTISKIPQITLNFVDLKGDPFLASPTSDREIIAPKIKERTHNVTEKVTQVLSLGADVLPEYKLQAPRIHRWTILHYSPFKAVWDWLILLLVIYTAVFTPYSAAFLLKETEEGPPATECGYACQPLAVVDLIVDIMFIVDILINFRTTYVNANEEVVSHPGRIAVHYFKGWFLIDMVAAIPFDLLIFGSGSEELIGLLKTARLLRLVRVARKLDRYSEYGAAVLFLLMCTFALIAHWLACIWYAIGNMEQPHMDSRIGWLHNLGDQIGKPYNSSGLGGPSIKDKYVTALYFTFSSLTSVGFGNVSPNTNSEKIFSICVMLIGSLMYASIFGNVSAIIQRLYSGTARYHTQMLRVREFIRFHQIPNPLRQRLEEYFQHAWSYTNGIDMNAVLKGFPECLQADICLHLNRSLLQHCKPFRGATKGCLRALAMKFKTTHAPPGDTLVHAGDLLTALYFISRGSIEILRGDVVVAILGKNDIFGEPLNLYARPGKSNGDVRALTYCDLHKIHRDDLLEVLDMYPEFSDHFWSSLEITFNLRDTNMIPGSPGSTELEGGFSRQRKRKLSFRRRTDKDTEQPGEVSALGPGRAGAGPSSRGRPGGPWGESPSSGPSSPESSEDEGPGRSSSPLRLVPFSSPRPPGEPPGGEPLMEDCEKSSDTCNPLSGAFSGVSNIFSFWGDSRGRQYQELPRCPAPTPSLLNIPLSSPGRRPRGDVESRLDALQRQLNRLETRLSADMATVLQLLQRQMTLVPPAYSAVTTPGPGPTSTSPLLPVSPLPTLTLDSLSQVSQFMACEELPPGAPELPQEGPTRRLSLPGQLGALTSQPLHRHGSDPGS

For the molecule `COc1cc2c3cc1Oc1cc(ccc1O)C[C@@H]1c4c(cc(OC)c(O)c4Oc4ccc(cc4)C[C@@H]3N(C)CC2)CC[N+]1(C)C.[Cl-]`, the IC50 result (against B2 bradykinin receptor; against Substance-K receptor; on D(4) dopamine receptor; in data set [1]; on Histamine H2 receptor; on Neutrophil elastase) was “Not Active” in each case. In data set [2], the IC50 entry is listed as “Not Active”. In addition, the Ki entry in data set [1] and in data set [2] was “Not Active” throughout.
Turning to `CN(Cc1ccc(C(C)(C)C)cc1)Cc1cccc2ccccc12` [BUTENAFINE], the IC50 result (against B2 bradykinin receptor; on Substance-K receptor; on D(4) dopamine receptor; in data set [1]; at Histamine H2 receptor; on Neutrophil elastase) was “Not Active” each time. For the same molecule, the IC50 entry in data set [2] is recorded as “Not Active”. For the same molecule, the Ki entry in data set [1] and in data set [2] was “Not Active” each time.
With `C[C@H](CCC(=O)O)[C@H]1CC[C@H]2[C@@H]3[C@H](O)C[C@@H]4C[C@H](O)CC[C@]4(C)[C@H]3C[C@H](O)[C@]12C` [CHOLIC ACID], the IC50 entry (on B2 bradykinin receptor; against Substance-K receptor; on D(4) dopamine receptor; in data set [1]; at Histamine H2 receptor; against Neutrophil elastase) was “Not Active” each time. In data set [2], the IC50 entry is “Not Active”. Moreover, the Ki entry in data set [1] and in data set [2] was “Not Active” in each case.
Consider `CC1=C2C(=CO[C@H](C)[C@H]2C)C(O)=C(C(=O)O)C1=O` [CITRININ], for which the IC50 result (against B2 bradykinin receptor; against Substance-K receptor; at D(4) dopamine receptor; in data set [1]; against Histamine H2 receptor; at Neutrophil elastase) was “Not Active” throughout. The IC50 result in data set [2] was “Not Active”. Also, the Ki result in data set [1] and in data set [2] was “Not Active” each time.
For `CCCCc1nc(Cl)c(CO)n1Cc1ccc(-c2ccccc2-c2nnn[nH]2)cc1` [LOSARTAN], the IC50 entry (at B2 bradykinin receptor; on Substance-K receptor; at D(4) dopamine receptor; in data set [1]; against Histamine H2 receptor; against Neutrophil elastase) was “Not Active” each time. Also, in data set [2], the IC50 entry was “Not Active”. Moreover, the Ki result in data set [1] and in data set [2] was “Not Active” each time.
As to `Cc1cc(C2CCCCC2)n(O)c(=O)c1` [CICLOPIROX], the IC50 entry (at B2 bradykinin receptor; against Substance-K receptor; on D(4) dopamine receptor; in data set [1]; against Histamine H2 receptor; against Neutrophil elastase) was “Not Active” each time. Also, the IC50 result in data set [2] is “Not Active”. Moreover, the Ki entry in data set [1] and in data set [2] was “Not Active” each time.
As for `CCCCN1CCCC[C@H]1C(=O)Nc1c(C)cccc1C` [LEVOBUPIVACAINE], the IC50 entry (on B2 bradykinin receptor; against Substance-K receptor; at D(4) dopamine receptor; in data set [1]; on Histamine H2 receptor; on Neutrophil elastase) was “Not Active” throughout. In data set [2], the IC50 result is listed as “Not Active”. For the same molecule, the Ki entry in data set [1] and in data set [2] was “Not Active” each time.
Turning to `CC[C@@]1(O)C[C@H](O[C@H]2C[C@H](N(C)C)[C@H](O[C@H]3C[C@H](O)[C@H](O[C@H]4CCC(=O)[C@H](C)O4)[C@H](C)O3)[C@H](C)O2)c2c(cc3c(c2O)C(=O)c2c(O)cccc2C3=O)[C@H]1C(=O)OC` [ACLARUBICIN], the IC50 entry (against B2 bradykinin receptor; at Substance-K receptor; on D(4) dopamine receptor; in data set [1]; against Histamine H2 receptor; against Neutrophil elastase) was “Not Active” each time. Besides, in data set [2], the IC50 entry is recorded as “Not Active”. Moreover, the Ki result in data set [1] and in data set [2] was “Not Active” in each case.
In the case of `CC(=O)O[C@@]12CO[C@@H]1C[C@H](O)[C@@]1(C)C(=O)[C@H](O)C3=C(C)[C@@H](OC(=O)[C@H](O)[C@@H](NC(=O)OC(C)(C)C)c4ccccc4)C[C@@](O)([C@@H](OC(=O)c4ccccc4)[C@H]21)C3(C)C.O.O.O` [DOCETAXEL], the IC50 result (against B2 bradykinin receptor; on D(4) dopamine receptor; in data set [1]; against Histamine H2 receptor; on Neutrophil elastase; in data set [2]) was “Not Active” throughout. Besides, the pIC50 at Substance-K receptor (read-out: IC50) is 5.81. Besides, the pKi on Substance-K receptor (read-out: Ki) is 6.28. The Ki entry in data set [1] and in data set [2] was “Not Active” throughout.
On to `CNCCc1ccccn1` [BETAHISTINE], for which the IC50 result (at B2 bradykinin receptor; against Substance-K receptor; on D(4) dopamine receptor; in data set [1]; against Histamine H2 receptor; at Neutrophil elastase) was “Not Active” throughout. In addition, the IC50 entry in data set [2] is reported as “Not Active”. In addition, the Ki result in data set [1] and in data set [2] was “Not Active” in each case.
For the molecule `Clc1cccc(Cl)c1NC1=NCCN1` [CLONIDINE], the IC50 result (against B2 bradykinin receptor; at Substance-K receptor; at D(4) dopamine receptor; in data set [1]; at Histamine H2 receptor; against Neutrophil elastase) was “Not Active” each time. Moreover, the IC50 entry in data set [2] is “Not Active”. In addition, the Ki entry in data set [1] and in data set [2] was “Not Active” throughout.
For the molecule `C[C@H](CS)C(=O)N1CCC[C@H]1C(=O)O` [CAPTOPRIL], the IC50 result (against B2 bradykinin receptor; on Substance-K receptor; at D(4) dopamine receptor; in data set [1]; at Histamine H2 receptor; at Neutrophil elastase) was “Not Active” in each case. Also, in data set [2], the IC50 entry is recorded as “Not Active”. Also, the Ki result in data set [1] and in data set [2] was “Not Active” each time.
For the molecule `CC(C)(Oc1ccc(Cl)cc1)C(=O)O` [CLOFIBRIC ACID], the IC50 result (against B2 bradykinin receptor; against Substance-K receptor; on D(4) dopamine receptor; in data set [1]; against Histamine H2 receptor; at Neutrophil elastase) was “Not Active” each time. For the same molecule, in data set [2], the IC50 result is “Not Active”. Besides, the Ki result in data set [1] and in data set [2] was “Not Active” throughout.
As to `OC(Cn1cncn1)(Cn1cncn1)c1ccc(F)cc1F` [FLUCONAZOLE], the IC50 entry (against B2 bradykinin receptor; against Substance-K receptor; on D(4) dopamine receptor; in data set [1]; against Histamine H2 receptor; on Neutrophil elastase) was “Not Active” throughout. The IC50 entry in data set [2] is recorded as “Not Active”. Moreover, the Ki entry in data set [1] and in data set [2] was “Not Active” in each case.
Regarding `O=C1CC[C@@H](N2C(=O)c3ccccc3C2=O)C(=O)N1`, the IC50 entry (against B2 bradykinin receptor; against Substance-K receptor; on D(4) dopamine receptor; in data set [1]; at Histamine H2 receptor; against Neutrophil elastase) was “Not Active” in each case. The IC50 result in data set [2] is listed as “Not Active”. Moreover, the Ki result in data set [1] and in data set [2] was “Not Active” each time.
